US11566028B2, “Bicyclic heterocycles as FGFR inhibitors” (Incyte Corporation, priority 2019, dated 2023)
Read-outs that look alike come from different tables or passages of the source.

Columns and labels:
Format in all cases: biochemical
FGFR1 = FGFR1 (Homo sapiens (Human), UniProt P11362); assay: FGFR Enzymatic Assay (FRET peptide phosphorylation), FGFR1; settings: pre-incubated for 4 hours
FGFR2 = FGFR2 (Homo sapiens (Human), UniProt P21802); assay: FGFR Enzymatic Assay (FRET peptide phosphorylation), FGFR2
FGFR4 = FGFR4 (Homo sapiens (Human), UniProt P22455); assay: FGFR Enzymatic Assay (FRET peptide phosphorylation), FGFR4
[1] = molecular target: wild-type un-phosphorylated FGFR3 protein (Homo sapiens (Human), UniProt P22607); assay: FGFR Enzymatic Assay (FRET peptide phosphorylation), FGFR3; settings: pre-incubated for 4 hours
Chain of wild-type un-phosphorylated FGFR3 protein (P22607 23-806): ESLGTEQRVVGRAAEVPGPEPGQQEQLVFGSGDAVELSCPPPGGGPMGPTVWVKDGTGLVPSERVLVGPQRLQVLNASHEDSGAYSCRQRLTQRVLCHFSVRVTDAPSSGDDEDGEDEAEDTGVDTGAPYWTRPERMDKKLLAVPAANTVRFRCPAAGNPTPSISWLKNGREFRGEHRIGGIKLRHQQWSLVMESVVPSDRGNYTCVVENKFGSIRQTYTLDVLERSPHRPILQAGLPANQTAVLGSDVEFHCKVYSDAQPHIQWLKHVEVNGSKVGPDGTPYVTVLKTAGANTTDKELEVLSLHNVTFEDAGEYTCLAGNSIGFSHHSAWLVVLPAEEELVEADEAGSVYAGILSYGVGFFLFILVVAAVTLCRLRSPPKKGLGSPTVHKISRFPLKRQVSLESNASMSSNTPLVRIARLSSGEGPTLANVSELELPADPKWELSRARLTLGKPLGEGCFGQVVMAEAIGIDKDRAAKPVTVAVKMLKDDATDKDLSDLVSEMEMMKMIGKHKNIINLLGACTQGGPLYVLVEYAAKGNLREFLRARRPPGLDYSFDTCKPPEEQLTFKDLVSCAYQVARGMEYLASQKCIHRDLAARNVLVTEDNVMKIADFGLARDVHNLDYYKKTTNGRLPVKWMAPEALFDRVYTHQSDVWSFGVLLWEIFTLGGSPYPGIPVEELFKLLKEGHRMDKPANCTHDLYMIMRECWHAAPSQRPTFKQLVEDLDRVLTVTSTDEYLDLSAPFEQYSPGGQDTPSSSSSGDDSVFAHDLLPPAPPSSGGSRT

Chain of FGFR4 (P22455 22-802): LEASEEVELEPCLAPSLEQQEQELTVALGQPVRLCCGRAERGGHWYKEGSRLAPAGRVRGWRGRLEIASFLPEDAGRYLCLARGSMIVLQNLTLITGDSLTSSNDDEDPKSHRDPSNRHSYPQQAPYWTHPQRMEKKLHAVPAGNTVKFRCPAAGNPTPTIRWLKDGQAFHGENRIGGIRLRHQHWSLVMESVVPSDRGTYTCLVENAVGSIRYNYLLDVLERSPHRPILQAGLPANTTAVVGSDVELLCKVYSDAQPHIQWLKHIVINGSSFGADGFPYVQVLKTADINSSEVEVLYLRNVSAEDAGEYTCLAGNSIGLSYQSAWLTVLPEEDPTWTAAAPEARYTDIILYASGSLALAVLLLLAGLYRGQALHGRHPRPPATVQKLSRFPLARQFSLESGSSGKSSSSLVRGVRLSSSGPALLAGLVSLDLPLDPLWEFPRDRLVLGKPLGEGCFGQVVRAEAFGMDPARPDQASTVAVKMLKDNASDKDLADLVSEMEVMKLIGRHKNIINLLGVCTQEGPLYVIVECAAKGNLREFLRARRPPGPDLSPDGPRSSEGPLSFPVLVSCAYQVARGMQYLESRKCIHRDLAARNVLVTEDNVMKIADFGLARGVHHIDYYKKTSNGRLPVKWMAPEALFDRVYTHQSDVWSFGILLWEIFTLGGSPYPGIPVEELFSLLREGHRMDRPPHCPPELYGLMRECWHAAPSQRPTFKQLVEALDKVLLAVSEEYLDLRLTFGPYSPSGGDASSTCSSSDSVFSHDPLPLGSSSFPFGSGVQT
Chain of FGFR2 (P21802 22-821): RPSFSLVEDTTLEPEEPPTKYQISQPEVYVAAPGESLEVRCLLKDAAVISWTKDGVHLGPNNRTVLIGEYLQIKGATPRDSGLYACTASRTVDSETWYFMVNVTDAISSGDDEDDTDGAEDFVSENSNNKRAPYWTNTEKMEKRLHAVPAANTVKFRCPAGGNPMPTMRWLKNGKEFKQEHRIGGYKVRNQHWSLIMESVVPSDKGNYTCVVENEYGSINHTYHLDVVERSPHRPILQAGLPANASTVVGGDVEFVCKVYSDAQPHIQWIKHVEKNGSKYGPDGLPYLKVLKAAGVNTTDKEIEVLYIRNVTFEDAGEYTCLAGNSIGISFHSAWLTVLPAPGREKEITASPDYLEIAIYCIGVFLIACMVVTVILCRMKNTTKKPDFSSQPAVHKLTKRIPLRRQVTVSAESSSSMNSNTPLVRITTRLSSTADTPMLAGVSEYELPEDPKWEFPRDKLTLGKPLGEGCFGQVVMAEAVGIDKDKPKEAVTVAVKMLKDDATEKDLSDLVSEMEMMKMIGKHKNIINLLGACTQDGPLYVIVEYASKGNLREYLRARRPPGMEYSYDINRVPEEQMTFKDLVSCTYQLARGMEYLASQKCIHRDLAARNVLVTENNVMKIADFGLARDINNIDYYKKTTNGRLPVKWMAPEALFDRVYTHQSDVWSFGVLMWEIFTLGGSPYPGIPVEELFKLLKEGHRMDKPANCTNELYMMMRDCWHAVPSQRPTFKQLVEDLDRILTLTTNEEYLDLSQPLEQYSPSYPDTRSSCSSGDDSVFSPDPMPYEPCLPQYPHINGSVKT
Chain of FGFR1 (P11362 22-822): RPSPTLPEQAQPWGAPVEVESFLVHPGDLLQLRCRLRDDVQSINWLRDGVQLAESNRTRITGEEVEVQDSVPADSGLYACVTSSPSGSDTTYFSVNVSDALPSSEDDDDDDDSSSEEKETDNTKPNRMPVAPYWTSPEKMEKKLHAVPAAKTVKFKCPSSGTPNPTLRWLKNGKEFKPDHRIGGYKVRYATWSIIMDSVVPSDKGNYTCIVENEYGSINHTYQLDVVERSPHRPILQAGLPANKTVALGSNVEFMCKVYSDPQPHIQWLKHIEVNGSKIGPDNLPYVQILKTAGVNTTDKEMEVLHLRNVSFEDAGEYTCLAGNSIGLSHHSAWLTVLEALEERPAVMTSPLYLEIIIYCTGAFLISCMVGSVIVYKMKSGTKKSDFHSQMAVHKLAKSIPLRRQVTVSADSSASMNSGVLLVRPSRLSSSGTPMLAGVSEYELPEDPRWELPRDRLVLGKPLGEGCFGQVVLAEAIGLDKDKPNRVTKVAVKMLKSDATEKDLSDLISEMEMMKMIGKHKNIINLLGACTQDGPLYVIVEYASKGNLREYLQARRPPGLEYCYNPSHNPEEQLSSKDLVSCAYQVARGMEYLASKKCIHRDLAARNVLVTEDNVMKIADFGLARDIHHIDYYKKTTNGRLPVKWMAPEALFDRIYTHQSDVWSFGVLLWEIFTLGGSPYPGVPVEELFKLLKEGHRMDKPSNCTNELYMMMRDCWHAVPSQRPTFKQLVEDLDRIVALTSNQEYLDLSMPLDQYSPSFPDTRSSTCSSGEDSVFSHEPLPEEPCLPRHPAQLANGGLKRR

Row | Structure (SMILES) | IC50 (FGFR1) [nM] | IC50 (FGFR2; pre-incubated for 4 hours) [nM] | IC50 (FGFR4; pre-incubated for 4 hours) [nM] | IC50 [1] [nM] | IC50 (FGFR2) [nM] | IC50 (FGFR4) [nM]
1 | CNC(=O)c1cncc(-c2cnn3cc(-c4cnn(C)c4)c(OC4CCOC4)nc23)c1 (racemic) [Example 3, N-Methyl-5-(6-(1-methyl-1H-pyrazol-4-yl)-5-((tetrahydrofuran-3-yl)oxy)pyrazolo[1,5-a]pyrimidin-3-yl)nicotinamide] | 30 to 200 | < 10 | ≥ 200 | – | – | –
2 | CNC(=O)c1cc(C)c(F)c(-c2cnn3cc(-c4cnn(CC(C)(C)O)c4)c(N[C@H]4CCOC4)nc23)c1 [Example 40, (S)-4-Fluoro-3-(6-(1-(2-hydroxy-2-methylpropy1)-1H-pyrazol-4-y1)-5-((tetrahydrofuran-3-yl)amino)pyrazolo[1,5-a]pyrimidin-3-y1)-N,5-dimethylbenzamide] | 10 to 30 | – | – | < 10 | < 10 | 30 to 200
3 | CNC(=O)c1cc(C)c(F)c(-c2cnn3cc(-c4cnn(C5CCOC5)c4)c(N[C@H]4CCOC4)nc23)c1 (stereo partly drawn) [Example 41, 4-Fluoro-N,3-dimethyl-5-(6-(1-(tetrahydrofuran-3-yl)-1H-pyrazol-4-y1)-5-(((S)-tetrahydrofuran-3-yl)amino)pyrazolo[1,5-a]pyrimidin-3-yl)benzamide] | 30 to 200 | – | – | < 10 | < 10 | 30 to 200
4 | CNC(=O)c1cc(F)c(F)c(-c2cnn3cc(-c4cnn(CCN5CCOCC5)c4)c(N[C@H]4CCOC4)nc23)c1 [Example 55, (S)-3,4-Difluoro-N-methy1-5-(6-(1-(2-morpholinoethyl)-1H-pyrazol-4-y1)-5-((tetrahydrofuran-3-yl)amino)pyrazolo[1,5-a]pyrimidin-3-yl)benzamide] | < 10 | – | – | < 10 | < 10 | 30 to 200
5 | [2H]C([2H])([2H])NC(=O)c1cc(-c2cnn3cc(-c4ccc(CN5C[C@H]6C[C@@H]5CO6)nc4)c(O[C@H]4CCOC4)nc23)c(F)c(C(F)F)c1 [Example 66, 3-(6-(6-(((1R,4R)-2-Oxa-5-azabicyclo[2.2.1]heptan-5-yl)methyl)pyridin-3-yl)-5-(((S)-tetrahydrofuran-3-yl)oxy)pyrazolo[1,5-a]pyrimidin-3-yl)-5-(difluoromethyl)-4-fluoro-N-(methyl-d3)benzamide] | 30 to 200 | < 10 | 30 to 200 | < 10 | – | –
6 | CNC(=O)c1cc(C)c(F)c(-c2cnn3cc(-c4cnn(C)c4)c(OC4CCOC4)nc23)c1 (racemic) [Example 4, 4-Fluoro-N,3-dimethyl-5-(6-(1-methyl-1H-pyrazol-4-yl)-5-((tetrahydrofuran-3-yl)oxy)pyrazolo[1,5-a]pyrimidin-3-yl)benzamide] | 30 to 200 | < 10 | 30 to 200 | < 10 | – | –
7 | CNC(=O)c1cc(C)c(F)c(-c2cnn3cc(-c4cnn(C5CCN(C)CC5)c4)c(N[C@H]4CCOC4)nc23)c1 [Example 34, (S)-4-Fluoro-N,3-dimethyl-5-(6-(1-(1-methylpiperidin-4-yl)-1H-pyrazol-4-yl)-5-((tetrahydrofuran-3-yl)amino)pyrazolo[1,5-a]pyrimidin-3-yl)benzamide] | 10 to 30 | < 10 | 30 to 200 | < 10 | – | –
8 | CNC(=O)c1cc(F)c(F)c(-c2cnn3cc(-c4cnc(C)o4)c(N[C@H]4CCOC4)nc23)c1 [Example 58, (S)-3,4-Difluoro-N-methyl-5-(6-(2-methyloxazol-5-y1)-5-((tetrahydrofuran-3-yl)amino)pyrazolo[1,5-a]pyrimidin-3-yl)benzamide] | < 10 | – | – | < 10 | < 10 | 30 to 200
9 | Cn1cc(-c2cn3ncc(-c4cccc5[nH]ncc45)c3nc2O[C@H]2CCOC2)cn1 [Example 33, (S)-3-(1H-Indazol-4-yl)-6-(1-methyl-1H-pyrazol-4-yl)-5-((tetrahydrofuran-3-yl)oxy)pyrazolo[1,5-a]pyrimidine] | 10 to 30 | < 10 | 30 to 200 | < 10 | – | –
10 | CCNC(=O)c1cncc(-c2cnn3cc(-c4ccn(C)n4)c(N[C@H]4CCOC4)nc23)c1 [Example 61, (S)—N-Ethyl-5-(6-(1-methyl-1H-pyrazol-3-yl)-5-((tetrahydrofuran-3-yl)amino)pyrazolo[1,5-a]pyrimidin-3-yl)nicotinamide] | 30 to 200 | < 10 | 30 to 200 | < 10 | – | –
11 | CNC(=O)c1cncc(-c2cnn3cc(-c4cnn(C)n4)c(N[C@H]4CCOC4)nc23)c1 [Example 60, (S)—N-Methyl-5-(6-(2-methyl-2H-1,2,3-triazol-4-yl)-5-((tetrahydrofuran-3-yl)amino)pyrazolo[1,5-a]pyrimidin-3-yl)nicotinamide] | 30 to 200 | < 10 | ≥ 200 | < 10 | – | –
12 | [2H]C([2H])([2H])NC(=O)c1cncc(-c2cnn3cc(-c4cnn(C(C)C)c4)c(O[C@H]4CCOC4)nc23)c1 [Example 63, (S)-5-(6-(1-Isopropyl-1H-pyrazol-4-yl)-5-((tetrahydrofuran-3-yl)oxy)pyrazolo[1,5-a]pyrimidin-3-yl)-N-(methyl-d3)nicotinamide] | – | – | 30 to 200 | – | – | –
13 | CCS(=O)(=O)c1cc(F)c(F)c(-c2cnn3cc(-c4cnn(C)c4)c(N[C@H]4CCOC4)nc23)c1 [Example 45, (S)-3-(5-(Ethylsulfonyl)-2,3-difluorophenyl)-6-(1-methyl-1H-pyrazol-4-yl)-N-(tetrahydrofuran-3-yl)pyrazolo[1,5-a]pyrimidin-5-amine] | 10 to 30 | – | ≥ 200 | – | – | –
14 | CC(C)NC(=O)c1cncc(-c2cnn3cc(-c4ccn(C)n4)c(N[C@H]4CCOC4)nc23)c1 [Example 62, (S)—N-Isopropyl-5-(6-(1-methyl-1H-pyrazol-3-yl)-5-((tetrahydrofuran-3-yl)amino)pyrazolo[1,5-a]pyrimidin-3-yl)nicotinamide] | 30 to 200 | 10 to 30 | ≥ 200 | – | – | –
15 | CNC(=O)c1cc(-c2cnn3cc(-c4cnn(C5CN(C)C5)c4)c(O[C@H]4CCOC4)nc23)c(F)c(C(F)F)c1 [Example 26, (S)-3-(Difluoromethyl)-4-fluoro-N-methyl-5-(6-(1-(1-methylazetidin-3-yl)-1H-pyrazol-4-yl)-5-((tetrahydrofuran-3-yl)oxy)pyrazolo[1,5-a]pyrimidin-3-yl)benzamide] | < 10 | < 10 | – | < 10 | – | –
16 | CNC(=O)c1cncc(-c2cnn3cc(-c4cnn(C5CC5)c4)c(O[C@H]4CCOC4)nc23)c1 [Example 21, (S)-5-(6-(1-Cyclopropyl-1H-pyrazol-4-yl)-5-((tetrahydrofuran-3-yl)oxy)pyrazolo[1,5-a]pyrimidin-3-yl)-N-methylnicotinamide] | 30 to 200 | < 10 | – | < 10 | – | –
17 | CNC(=O)c1cc(C#N)cc(-c2cnn3cc(-c4ccc(C)nc4)c(O[C@H]4CCOC4)nc23)c1 [Example 28, (S)-3-Cyano-N-methyl-5-(6-(6-methylpyridin-3-yl)-5-((tetrahydrofuran-3-yl)oxy)pyrazolo[1,5-a]pyrimidin-3-yl)benzamide] | ≥ 200 | 10 to 30 | – | < 10 | – | –
18 | CCS(=O)(=O)c1cc(F)c(F)c(-c2cnn3cc(-c4cnn(C)c4)c(O[C@H]4CCOC4)nc23)c1 [Example 46, (S)-3-(5-(Ethylsulfonyl)-2,3-difluorophenyl)-6-(1-methyl-1H-pyrazol-4-yl)-5-((tetrahydrofuran-3-yl)oxy)pyrazolo[1,5-a]pyrimidine] | 10 to 30 | < 10 | ≥ 200 | – | – | –
